Patent publication US8471015B2, “Process for producing a green fluorescent protein comprising coelenteramide or an analog thereof” (JNC Corporation, priority 2009, dated 2013)
Where two headings read alike, the source gives them in different places.

How the values were obtained:
[1] = target: T1, apoaequorin (Aequorea victoria, UniProt P07164); format: biochemical
T1 construct: OmpA signal peptide (N, cleaved yes); made in house; host or cells: Escherichia coli strain WA802
Procedure: Apoaequorin (0.5 mg, 22 nmol) was mixed with 10 μl of coelenteramide (1.2 μg/μl, 29 nmol, in anhydrous methanol) in 1 ml of 50 mM Tris-HCl (pH 7.6) containing 10 mM CaCl2 and 1 mM DTT. […] Subsequently, syn-BFP was treated at 4° C., 5,000×g for 20 minutes using centrifugal concentrator Vivaspin 2 (10,000 MWCO, Sartorius AG, Germany) to concentrate the mixture to 0.1 ml.
Regarding the production of synthetic gFP (syn-gFP) from apoaequorin and coelenteramide, apoaequorin (0.5 mg, 22 nmol) was mixed with 10 μl of coelenteramide (1.2 μg/μl, 29 nmol, in anhydrous methanol) in 1 ml of 50 mM Tris-HCl (pH 7.6) containing 10 mM EDTA and 1 mM DTT. […]
Absorption spectra were measured at 25° C. with a Jasco (Tokyo, Japan) V-560 spectrophotometer (bandwidth: 0.5 nm, response, medium; scan speed, 100 nm/min.) using a quartz cuvette (10 mm light path). Also, fluorescence spectra were measured on a Jasco FP-6500 fluorescence spectrophotometer (emission/excitation bandwidth: 3 nm, response: 0.5 sec., scan speed: 1000 nm/min.).

T1 sequence (P07164 other isoform, or with tags, fused parts or gaps with the stated changes): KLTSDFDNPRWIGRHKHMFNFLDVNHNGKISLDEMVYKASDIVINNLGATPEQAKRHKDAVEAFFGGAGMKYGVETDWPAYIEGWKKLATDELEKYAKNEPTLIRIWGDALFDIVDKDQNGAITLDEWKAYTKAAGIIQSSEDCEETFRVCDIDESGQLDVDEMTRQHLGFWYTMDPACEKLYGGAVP

Row | melting point | Structure (SMILES) | Fluorescence intensity (rlu) (excited at 332 nm) ([1]; 10 mM Ca^2+ (Imax, 465 nm), +DTT, 0 hr) | Fluorescence intensity (rlu) (excited at 332 nm) ([1]; 10 mM Ca^2+ (Imax, 465 nm), +DTT, 0.5 hr) | Fluorescence intensity (rlu) (excited at 332 nm) ([1]; 10 mM Ca^2+ (Imax, 465 nm), +DTT, 16 hrs) | Fluorescence intensity (rlu) (excited at 332 nm) ([1]; 10 mM Ca^2+ (Imax, 465 nm), -DTT series, then +DTT, 24 hrs) | Fluorescence intensity (rlu) (excited at 332 nm) ([1]; 10 mM Ca^2+ (Imax, 465 nm), -DTT, 0 hr) | Fluorescence intensity (rlu) (excited at 332 nm) ([1]; 10 mM Ca^2+ (Imax, 465 nm), -DTT, 16 hrs) | Fluorescence intensity (rlu) (excited at 332 nm) ([1]; 10 mM EDTA (Imax, 469.5 nm), +DTT, 0 hr) | Fluorescence intensity (rlu) (excited at 332 nm) ([1]; 10 mM EDTA (Imax, 469.5 nm), +DTT, 0.5 hr) | Fluorescence intensity (rlu) (excited at 332 nm) ([1]; 10 mM EDTA (Imax, 469.5 nm), +DTT, 16 hrs) | Fluorescence intensity (rlu) (excited at 332 nm) ([1]; 10 mM EDTA (Imax, 469.5 nm), -DTT series, then +DTT, 24 hrs) | Fluorescence intensity (rlu) (excited at 332 nm) ([1]; 10 mM EDTA (Imax, 469.5 nm), -DTT, 0 hr) | Fluorescence intensity (rlu) (excited at 332 nm) ([1]; 10 mM EDTA (Imax, 469.5 nm), -DTT, 16 hrs)
1 | – | O=C(Cc1ccc(O)cc1)Nc1ncc(-c2ccc(O)cc2)nc1Cc1ccccc1 [Coelenteramide, coelenteramide] | 25.4 rlu | 28.4 rlu | 29.5 rlu | 22.0 rlu | 9.8 rlu | 11.3 rlu | 20.2 rlu | 22.7 rlu | 23.1 rlu | 24.3 rlu | 14.8 rlu | 18.7 rlu
2 | 189.5 to 191 °C | COc1ccc(CC(=O)Nc2ncc(-c3ccc(OC)cc3)nc2Cc2ccccc2)cc1 [IV, coelenteramide dimethyl ether] | – | – | – | – | – | – | – | – | – | – | – | –
